Measured values taken from patent US20210330611A1, “THERAPY FOR NEUROLOGICAL DISEASES/DISORDERS” (priority 2020, published 2021).

Experiments:
[1] = system: CD4+ T cells; test: Flow cytometry of splenocyte T cells from MOG35-55 EAE mice; type: in vivo, mouse; conditions: splenocytes, 10 days treatment, FIG. 14C-F
Protocol: Flow cytometry. Cells were incubated with anti-mouse CD16/CD32 antibody (2.4G2) diluted in PBS with 2% FBS, and 2 mM EDTA at 4° C. for 15 min to block Fc receptor binding. Cells were stained with fluorescent-conjugated antibodies: CD3 (17A2), CD4 (GK1.5), CD8 (53-6.7), CD62L (MEL-14), CD44 (1M7), CD25 (3C7), CD11b (M1/70), CD45 (30-F11), and MHC II (M5/114.15.2). For surface labeling of GGT1, unconjugated mouse monoclonal anti-GGT1 (1:100; ab55138, Abcam) was incubated with surface markers for 1 hr at 4° C. Then FITC conjugated species-specific secondary antibody (1:100) was added for 1 hr at 4° C. For intracellular staining of IFN-γ and IL-17A, T cells were stimulated for 4 hr with Cell Activation Cocktail (BioLegend). Cells were then fixed with Cytofix/Cytoperm solution (BD Bioscience) and stained with antibodies to IL-17A (TC11-18H10.1), or IFN-γ (XMG1.2). Foxp3 (FJK-16S) staining was performed according to the manufacturer's protocol (eBioscience). Cells were analyzed by flow cytometry on an LSR II (BD Biosciences) with FlowJo software (Tree Star Inc.). Antibodies were purchased from BioLegend, BD Biosciences, or eBioscience.

[2] = system: chronic NOD MOG35-55 EAE; test: Chronic MOG35-55 EAE in NOD mice, clinical scores; type: in vivo, mouse; conditions: therapeutic, daily from day 80 to day 113, FIG. 8b
[3] = system: primary microglia; type: cell-based, rat; conditions: 48 h, FIG. 12
Protocol: FIGS. 12A-E. Effects of acivicin on microglia, macrophage and whole blood cell numbers. a, Representative images showing morphology and density of primary microglia treated with vehicle or acivicin for 48 h stained with nuclei marker Hoechst or CellMask Red Whole Cell Stain. Quantification of the total number of microglia. Data are representative of one experiment with technical replicates (open symbols). b, Representative confocal images showing morphology and density of control- and acivicin-treated BMDMs treated for 24 h. Scale bar, 100 μm. Insets depict digitally zoomed in areas of regions of interest. Quantification of the total number of BMDMs in the field of view. […] Cell viability of single CD45^+ cells was assessed by Sytox blue live/dead nuclei stain. Quantification of percent cell viability of CD45^+ BMDMs treated with acivicin or left untreated. Data are from 2 independent experiments with n=4 mice per group (mean±s.d.). d, Quantification of complete blood count analysis of white blood cells (WBCs), red blood cells (RBC), platelets (PLT) (left) and composition of WBCs (right) of blood samples from healthy mice treated with saline or acivicin for 10 days. […] Quantification of total microglia cell numbers in healthy mice treated with acivicin or saline. […]
Image-based HTS of small molecule inhibitors of microglia activation. […] The plates were stored in PBS for readout by imaging.

N[C@H](C(=O)O)[C@@H]1CC(Cl)=NO1 [Acivicin, (2S)-2-amino-2-[(5S)-3-chloro-4,5-dihydro-1,2-oxazol-5-yl] acetic acid]
IFN-γ-producing T cells [1]: selectively decreased | IL-17-producing T cells [1]: selectively decreased | progression, clinical signs [2]: suppressed progression | microglia cell number in vitro [3]: did not affect
